Target: T1, AlaRS N71Y binding to Nrp1 (Homo sapiens, UniProt P49588, N71Y)
T1 construct: expressed in transfected cells
T1 sequence (P49588 1-968 N71Y): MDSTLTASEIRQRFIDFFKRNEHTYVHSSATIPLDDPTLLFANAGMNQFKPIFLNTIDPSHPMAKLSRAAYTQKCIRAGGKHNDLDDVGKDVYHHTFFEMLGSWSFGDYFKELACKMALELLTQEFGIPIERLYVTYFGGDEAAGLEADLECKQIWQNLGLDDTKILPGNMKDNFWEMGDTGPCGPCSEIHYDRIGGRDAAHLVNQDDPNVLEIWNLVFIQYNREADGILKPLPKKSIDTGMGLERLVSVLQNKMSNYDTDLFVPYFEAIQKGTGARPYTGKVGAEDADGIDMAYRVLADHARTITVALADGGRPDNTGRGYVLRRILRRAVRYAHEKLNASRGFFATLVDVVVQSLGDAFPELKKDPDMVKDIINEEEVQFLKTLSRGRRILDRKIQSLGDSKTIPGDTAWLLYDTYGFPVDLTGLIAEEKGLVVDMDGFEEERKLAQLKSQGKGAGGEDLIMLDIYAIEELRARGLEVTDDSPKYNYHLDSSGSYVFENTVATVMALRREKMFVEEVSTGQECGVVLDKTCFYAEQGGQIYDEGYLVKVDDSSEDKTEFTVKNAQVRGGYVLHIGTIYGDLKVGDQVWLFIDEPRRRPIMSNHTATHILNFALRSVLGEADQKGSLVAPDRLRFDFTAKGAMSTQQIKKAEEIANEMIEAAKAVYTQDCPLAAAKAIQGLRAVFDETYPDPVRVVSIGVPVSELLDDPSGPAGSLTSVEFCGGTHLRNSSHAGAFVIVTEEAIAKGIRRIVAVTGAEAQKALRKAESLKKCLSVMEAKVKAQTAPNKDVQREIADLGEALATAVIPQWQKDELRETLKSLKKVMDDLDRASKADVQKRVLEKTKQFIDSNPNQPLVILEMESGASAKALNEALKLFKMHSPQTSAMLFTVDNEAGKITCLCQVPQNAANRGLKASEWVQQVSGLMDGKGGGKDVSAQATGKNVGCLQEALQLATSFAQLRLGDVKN
Experiment: Co-IP of HA-AlaRS mutant with Nrp1 in transfected cells
Type: cell-based
Details: 20 µM Tanshinone I for 24 h, ImageJ, average of three repeats

Mean density band (N71Y), relative quantification of AlaRS mutant immunoprecipitated: 0.60
SMILES: Cc1coc2c1C(=O)C(=O)c1c-2ccc2c(C)cccc12 [Tanshinone I]

From PMC11509018, “Evaluation of the Role of Tanshinone I in an In Vitro System of Charcot-Marie-Tooth Disease Type 2N” (International Journal of Molecular Sciences, 2024)
